± gives the expanded uncertainty stated by the source.
Test: mn = molality of the nth substance listed, in mol/kg
Settings: 101 kPa, Liquid, Alternating current cell with electrodes

C[N+](C)(C)CCO.O=C([O-])C(F)(F)C(F)(F)C(F)(F)C(F)(F)C(F)(F)C(F)(F)C(F)(F)F [(2-hydroxyethyl)trimethylammonium perfluorooctanoate] + O
Settings | electrical conductivity [S/m]
303.15 K, m1 = 0.003487 | 0.0256 ± 0.0015
303.15 K, m1 = 0.003599 | 0.0264 ± 0.0016
303.15 K, m1 = 0.003701 | 0.0271 ± 0.0016
303.15 K, m1 = 0.003815 | 0.0279 ± 0.0017
303.15 K, m1 = 0.003911 | 0.0285 ± 0.0017
303.15 K, m1 = 0.004027 | 0.0293 ± 0.0018
303.15 K, m1 = 0.004122 | 0.03 ± 0.0018
303.15 K, m1 = 0.004288 | 0.0311 ± 0.0019
303.15 K, m1 = 0.004393 | 0.0318 ± 0.0019
303.15 K, m1 = 0.004492 | 0.0325 ± 0.002
303.15 K, m1 = 0.004585 | 0.0331 ± 0.002
303.15 K, m1 = 0.004679 | 0.0337 ± 0.002
303.15 K, m1 = 0.004785 | 0.0345 ± 0.0021
308.15 K, m1 = 6.9e-05 | 0.0006 ± 0.0001
308.15 K, m1 = 0.000131 | 0.0012 ± 0.0001
308.15 K, m1 = 0.000188 | 0.0016 ± 0.0001
308.15 K, m1 = 0.000233 | 0.002 ± 0.0001
308.15 K, m1 = 0.000278 | 0.0024 ± 0.0002
308.15 K, m1 = 0.000329 | 0.0029 ± 0.0002
308.15 K, m1 = 0.000372 | 0.0032 ± 0.0002
308.15 K, m1 = 0.000407 | 0.0035 ± 0.0002
308.15 K, m1 = 0.000451 | 0.0039 ± 0.0002
308.15 K, m1 = 0.000486 | 0.0043 ± 0.0003
308.15 K, m1 = 0.000545 | 0.0048 ± 0.0003
308.15 K, m1 = 0.000576 | 0.0051 ± 0.0003
308.15 K, m1 = 0.000628 | 0.0055 ± 0.0003
308.15 K, m1 = 0.000669 | 0.0059 ± 0.0004
308.15 K, m1 = 0.000706 | 0.0062 ± 0.0004
308.15 K, m1 = 0.000758 | 0.0067 ± 0.0004
308.15 K, m1 = 0.000796 | 0.007 ± 0.0004
308.15 K, m1 = 0.000831 | 0.0073 ± 0.0004
308.15 K, m1 = 0.000864 | 0.0076 ± 0.0005
308.15 K, m1 = 0.0009 | 0.0079 ± 0.0005
308.15 K, m1 = 0.000934 | 0.0082 ± 0.0005
308.15 K, m1 = 0.000981 | 0.0087 ± 0.0005
308.15 K, m1 = 0.001026 | 0.0091 ± 0.0005
308.15 K, m1 = 0.00106 | 0.0094 ± 0.0006
308.15 K, m1 = 0.001098 | 0.0097 ± 0.0006
308.15 K, m1 = 0.001138 | 0.0101 ± 0.0006
308.15 K, m1 = 0.001211 | 0.0107 ± 0.0006
308.15 K, m1 = 0.001265 | 0.0112 ± 0.0007
308.15 K, m1 = 0.001299 | 0.0114 ± 0.0007
308.15 K, m1 = 0.001362 | 0.012 ± 0.0007
308.15 K, m1 = 0.001397 | 0.0123 ± 0.0007
308.15 K, m1 = 0.001445 | 0.0127 ± 0.0008
308.15 K, m1 = 0.0015 | 0.0132 ± 0.0008
308.15 K, m1 = 0.001539 | 0.0136 ± 0.0008
308.15 K, m1 = 0.001701 | 0.015 ± 0.0009
308.15 K, m1 = 0.001808 | 0.0159 ± 0.001
308.15 K, m1 = 0.001958 | 0.0173 ± 0.001
308.15 K, m1 = 0.002148 | 0.0189 ± 0.0011
308.15 K, m1 = 0.002371 | 0.0209 ± 0.0013
308.15 K, m1 = 0.0025 | 0.022 ± 0.0013
308.15 K, m1 = 0.002602 | 0.0229 ± 0.0014
308.15 K, m1 = 0.002723 | 0.0239 ± 0.0014
308.15 K, m1 = 0.00288 | 0.0253 ± 0.0015
308.15 K, m1 = 0.003015 | 0.0265 ± 0.0016
308.15 K, m1 = 0.003126 | 0.0274 ± 0.0016
308.15 K, m1 = 0.00328 | 0.0287 ± 0.0017
308.15 K, m1 = 0.003401 | 0.0297 ± 0.0018
308.15 K, m1 = 0.003526 | 0.0308 ± 0.0018
308.15 K, m1 = 0.003657 | 0.0319 ± 0.0019
308.15 K, m1 = 0.003764 | 0.0328 ± 0.002
308.15 K, m1 = 0.003883 | 0.0337 ± 0.002
308.15 K, m1 = 0.003991 | 0.0346 ± 0.0021
308.15 K, m1 = 0.004106 | 0.0356 ± 0.0021
308.15 K, m1 = 0.00422 | 0.0365 ± 0.0022
308.15 K, m1 = 0.004341 | 0.0375 ± 0.0023
308.15 K, m1 = 0.004478 | 0.0386 ± 0.0023
308.15 K, m1 = 0.004597 | 0.0396 ± 0.0024
308.15 K, m1 = 0.004723 | 0.0405 ± 0.0024
313.15 K, m1 = 0.000143 | 0.0013 ± 0.0001
313.15 K, m1 = 0.000274 | 0.0026 ± 0.0002
313.15 K, m1 = 0.000394 | 0.0038 ± 0.0002
313.15 K, m1 = 0.000543 | 0.005 ± 0.0003
313.15 K, m1 = 0.00064 | 0.006 ± 0.0004
313.15 K, m1 = 0.000773 | 0.0073 ± 0.0004
313.15 K, m1 = 0.000904 | 0.0087 ± 0.0005
313.15 K, m1 = 0.001044 | 0.0101 ± 0.0006
313.15 K, m1 = 0.001221 | 0.012 ± 0.0007
313.15 K, m1 = 0.001372 | 0.0134 ± 0.0008
313.15 K, m1 = 0.001554 | 0.0149 ± 0.0009
313.15 K, m1 = 0.001697 | 0.0164 ± 0.001
313.15 K, m1 = 0.001835 | 0.0178 ± 0.0011
313.15 K, m1 = 0.002088 | 0.02 ± 0.0012
313.15 K, m1 = 0.002327 | 0.0222 ± 0.0013
313.15 K, m1 = 0.002528 | 0.0242 ± 0.0015
313.15 K, m1 = 0.002879 | 0.0274 ± 0.0016
313.15 K, m1 = 0.003226 | 0.0306 ± 0.0018
313.15 K, m1 = 0.003438 | 0.0318 ± 0.0019
313.15 K, m1 = 0.003602 | 0.0333 ± 0.002
313.15 K, m1 = 0.003774 | 0.035 ± 0.0021
313.15 K, m1 = 0.004014 | 0.037 ± 0.0022
313.15 K, m1 = 0.00417 | 0.0382 ± 0.0023
313.15 K, m1 = 0.004352 | 0.0397 ± 0.0024
313.15 K, m1 = 0.004528 | 0.0415 ± 0.0025
313.15 K, m1 = 0.004708 | 0.043 ± 0.0026
313.15 K, m1 = 0.004876 | 0.0446 ± 0.0027
313.15 K, m1 = 0.005072 | 0.0463 ± 0.0028
313.15 K, m1 = 0.005237 | 0.0477 ± 0.0029

Source: the NIST ThermoML archive (doi:10.1021/acs.jced.6b00455)
